Tested on: corneal damage in corneal disorder models
Assay: Test for therapeutic effect on corneal damage (corneal disorder model, exorbital lacrimal gland removed)
Assay type: in vivo, male SD rats
Details: for Effect on corneal damage (in words): male SD rat corneal disorder model; for Effect on corneal damage (in words) / Improvement ratio (%): 0.02% eye drops 6 times a day for 7 days; for Improvement ratio (%) / Mean value of total scores (fluorescein staining of upper, middle and lower parts of the cornea): male SD rat; for Improvement ratio (%): {(control)-(compound)}/{(control)-(normal eye)}x100, control = 0%; for Mean value of total scores (fluorescein staining of upper, middle and lower parts of the cornea): 0.02% in physiological saline instilled into both eyes 6 times a day for 7 days, scored 7 days after start, mean of 8 eyes, each part scored 0-3
Experimental: Test for Therapeutic Effect on Corneal Damage
Using male SD rats, in accordance with the method of Fujihara et al. (Invest. Ophthalmol. Vis. Sci. 42 (1): 96-100 (2001)), corneal disorder models were produced. After the production of the corneal disorder models, the improvement ratio of a corneal damage was evaluated according to the method of Murakami et al. (journal of the eye 21 (1): 87-90 (2004))
A male SD rat was systemically anesthetized by an administration of Nembutal. Subsequently the exorbital lacrimal gland was removed and a corneal damage was induced over a period of 2 months.
Then, 5-[4-[[3-methyl-4-oxo-3,4-dihydro-2-quinazolinyl]methoxy]phenylmethyl]thiazolidine-2,4-dione (Compound A) or N-[(4-methoxyphenoxy)carbonyl]-N-[[4-[2-(5-methyl-2-phenyl-4-oxazolyl)ethoxy]phenyl]methyl]glycine (Compound B) was administered as follows.
A physiological saline solution of Compound A (0.02%) was instilled into both eyes 6 times a day for 7 days (one group consisting of 4 animals, 8 eyes).
A physiological saline solution of Compound B (0.02%) was instilled into both eyes 6 times a day for 7 days (one group consisting of 4 animals, 8 eyes).
In a control group, physiological saline was instilled into both eyes 6 times a day for 7 days (one group consisting of 4 animals, 8 eyes).
Seven days after the start of instillation, the damaged parts of the cornea were stained with fluorescein. For each of the upper, middle and lower parts of the cornea, the degree of fluorescein staining was evaluated by scoring according to the criteria shown below and the mean value of the total scores for each of the above-mentioned parts was calculated.
Further, the mean value of the total scores for the normal eye was also calculated.
• 0: No punctate staining • 1: Scattered staining (punctate, separated staining) • 2: Moderate staining(a part of punctate staining being adjacent) • 3: Heavy staining (punctate, barely separated staining) (Results)
By taking the mean value of the total scores for the control group (physiological saline) as a reference (improvement ratio: 0%), the calculation was carried out according to the calculation formula shown below. Each of the improvement ratios for the Compound A administered group and the Compound B administered group are shown in Table 1 and Table 2. The mean value of the scores is a mean of those of 8 cases, respectively. Improvement ratio (%)={(control)−(the present compound)}/damage degree×100 Damage degree=(control)−(normal eye)

Cn1c(COc2ccc(CC3SC(=O)NC3=O)cc2)nc2ccccc2c1=O (stereo not drawn) [Compound A, 5-[4-[[3-methyl-4-oxo-3,4-dihydro-2-quinazolinyl]methoxy]phenylmethyl]thiazolidine-2,4-dione]
Effect on corneal damage (in words): significantly improve a corneal damage | Improvement ratio (%): 40.0% | Mean value of total scores (fluorescein staining of upper, middle and lower parts of the cornea): 4.8

COc1ccc(OC(=O)N(CC(=O)O)Cc2ccc(OCCc3nc(-c4ccccc4)oc3C)cc2)cc1 [Compound B, N-[(4-methoxyphenoxy)carbonyl]-N-[[4-[2-(5-methyl-2-phenyl-4-oxazolyl)ethoxy]phenyl]methyl]glycine]
Effect on corneal damage (in words): significantly improve a corneal damage | Improvement ratio (%): 42.3% | Mean value of total scores (fluorescein staining of upper, middle and lower parts of the cornea): 5.2

— US7348329B2, “Therapeutic agent for keratoconjunctival disorder” (Santen Pharmaceutical Co., Ltd., priority 2003, dated 2008)
